Results on 1 compound are retold here after PMC8582472, “Investigation of Novel Small Molecular TRPM4 Inhibitors in Colorectal Cancer Cells” (Cancers, 2021).

The assay concerns the target TRPM4 (Homo sapiens, UniProt Q8TD43). Kind of assay: whole-cell patch clamp of endogenous TRPM4 currents in HCT116 cells. The class given is cell-based. A general note: The patch-clamp technique gives a direct electrical read-out from membranes.

Chain of TRPM4 (Q8TD43 whole entry): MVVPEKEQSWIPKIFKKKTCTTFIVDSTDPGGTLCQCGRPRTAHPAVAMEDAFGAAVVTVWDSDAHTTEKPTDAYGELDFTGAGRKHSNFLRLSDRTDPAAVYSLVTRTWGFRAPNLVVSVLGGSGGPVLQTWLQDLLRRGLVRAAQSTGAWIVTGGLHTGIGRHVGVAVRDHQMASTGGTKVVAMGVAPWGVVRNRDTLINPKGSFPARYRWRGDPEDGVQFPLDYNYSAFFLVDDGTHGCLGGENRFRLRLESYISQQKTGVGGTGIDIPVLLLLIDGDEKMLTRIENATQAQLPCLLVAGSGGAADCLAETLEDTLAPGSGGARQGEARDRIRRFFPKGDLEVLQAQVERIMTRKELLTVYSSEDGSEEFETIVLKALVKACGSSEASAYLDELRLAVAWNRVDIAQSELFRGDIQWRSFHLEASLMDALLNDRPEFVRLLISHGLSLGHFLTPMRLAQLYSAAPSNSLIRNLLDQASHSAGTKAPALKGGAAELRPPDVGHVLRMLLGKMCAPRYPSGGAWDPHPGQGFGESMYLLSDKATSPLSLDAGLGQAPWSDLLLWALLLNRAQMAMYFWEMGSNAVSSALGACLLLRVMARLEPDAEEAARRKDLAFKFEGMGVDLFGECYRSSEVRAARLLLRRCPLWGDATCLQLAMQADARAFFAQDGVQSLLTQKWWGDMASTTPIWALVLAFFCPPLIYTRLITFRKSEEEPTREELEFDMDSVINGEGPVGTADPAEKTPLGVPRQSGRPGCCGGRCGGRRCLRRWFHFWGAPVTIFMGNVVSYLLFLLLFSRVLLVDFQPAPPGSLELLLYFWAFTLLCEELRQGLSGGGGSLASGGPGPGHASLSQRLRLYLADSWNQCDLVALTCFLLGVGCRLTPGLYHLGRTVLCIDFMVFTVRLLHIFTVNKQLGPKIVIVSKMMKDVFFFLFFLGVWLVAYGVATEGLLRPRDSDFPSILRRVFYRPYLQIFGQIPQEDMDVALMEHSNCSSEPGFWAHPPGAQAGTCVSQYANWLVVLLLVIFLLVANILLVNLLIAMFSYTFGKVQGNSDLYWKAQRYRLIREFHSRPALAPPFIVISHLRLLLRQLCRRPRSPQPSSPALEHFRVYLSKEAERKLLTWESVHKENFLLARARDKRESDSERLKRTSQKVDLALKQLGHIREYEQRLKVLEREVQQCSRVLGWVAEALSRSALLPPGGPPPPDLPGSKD

With `Cc1cc(Cl)ccc1OC(C)C(=O)Nc1cc(Cl)ccc1C(=O)O` (stereo not shown) [LBA, 4-chloro-2-(2-(4-chloro-2-methylphenoxy)propanamido) benzoic acid], the midpoint of inhibition, the IC50, lay at 1840 nM.
